Values quoted from earlier work, collected in patent US20040084867A1, “Individualization of therapy with anticoagulants” (Xanthus Life Sciences, Inc., priority 2002, published 2004).
Where two headings read alike, the source gives them in different places.

Experiments:
[1] = test system: individuals with deep vein thrombosis; details: cited from earlier work
[2] = test system: individuals treated with warfarin; details: cited from earlier work
CYP2C9 [3] = biological target: CYP2C9 (Homo sapiens, UniProt P11712); details: in vivo; cited from earlier work
CYP2C9 [4] = details: cited from earlier work

CYP2C9 (Homo sapiens, UniProt P11712), sequence (P11712 whole entry): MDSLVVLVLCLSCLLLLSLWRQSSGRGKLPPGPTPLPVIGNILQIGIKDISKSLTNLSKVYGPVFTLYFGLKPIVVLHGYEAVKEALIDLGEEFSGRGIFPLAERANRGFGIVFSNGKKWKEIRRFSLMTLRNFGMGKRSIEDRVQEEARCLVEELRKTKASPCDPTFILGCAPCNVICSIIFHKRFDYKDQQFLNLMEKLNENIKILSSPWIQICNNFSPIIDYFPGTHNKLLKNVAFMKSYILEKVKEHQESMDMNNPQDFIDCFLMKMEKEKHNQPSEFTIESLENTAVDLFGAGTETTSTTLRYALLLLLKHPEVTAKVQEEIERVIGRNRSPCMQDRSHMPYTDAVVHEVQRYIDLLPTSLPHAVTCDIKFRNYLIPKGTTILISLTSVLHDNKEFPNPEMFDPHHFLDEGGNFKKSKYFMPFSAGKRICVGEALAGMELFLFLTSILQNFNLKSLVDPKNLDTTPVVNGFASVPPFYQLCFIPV

## CC(=O)CC(c1ccccc1)c1c(O)c2ccccc2oc1=O (racemic) [warfarin]
[1]; Lagerstedt 1985, calf vein thrombosis, heparin 5 days then warfarin 3 months vs only heparin […] days
  recurrence rate: no recurrences
[1]; both groups: INR 2.5 to 4.5 and INR 2.0 to 2.5
  incidence of recurrence: approximately 2%
[2]; inter-individual range
  effective daily doses: 1 to 60 mg/day
[2]; varies from one individual to another
  daily dose required to maintain efficacy while avoiding side effects: 0.5 to 60 mg
CYP2C9 [3]
  MD (maintenance dose): vs. 0.397 (*1/*1) mg/kg/wk
CYP2C9 [4]; 1 individual, not specified, *3/*3
  MD (daily maintenance dose): 0.5 mg/day
CYP2C9 [4]; 38 Caucasian and African-American, *1/*3, *1/*2, *2/*2, CYP2A6*1/*2
  MD (maintenance dose): MD; 0.307 (*1/*3, *1/*2, *2/*2, CYP2A6*1/*2) mg/kg/wk
CYP2C9 [4]; 47 Japanese, *1/*3
  MD (daily maintenance dose): 1.75 mg/day
CYP2C9 [4]; 47 Japanese, *3/*3
  MD (daily maintenance dose): 0.4 mg/day
CYP2C9 [4]; 52 British, *1/*2, *2/*2
  MD (daily maintenance dose): 3.5 mg/day
CYP2C9 [4]; 52 British, *1/*3
  MD (daily maintenance dose): 2.5 mg/day
CYP2C9 [4]; 88 British, control group
  share of group with at least 1 of *3 or *2 allele: 1 of *3 or *2 allele vs. only 38% of control
CYP2C9 [4]; 88 British, low dose group
  risks of major bleeding: group; ↑ risks of major bleeding in the low dose
CYP2C9 [4]; 94 British, CYP2C9 *1/*2
  MD (daily maintenance dose): 3.8 mg/day
CYP2C9 [4]; 180 Caucasian, *1/*2, *2/*2
  MD (daily maintenance dose): 5.2 mg/day
CYP2C9 [4]; 180 Caucasian, *1/*3
  MD (daily maintenance dose): 3.8 mg/day
CYP2C9 [4]; 180 Caucasian, *2/*3
  MD (daily maintenance dose): 1.8 mg/day
CYP2C9 [4]; 561 British, *1/*2
  MD (daily maintenance dose): 4.31 mg/day
CYP2C9 [4]; 561 British, *1/*3
  MD (daily maintenance dose): 3.97 mg/day
CYP2C9 [4]; 561 British, *2/*2
  MD (daily maintenance dose): 3.04 mg/day
CYP2C9 [4]; 561 British, *2/*3
  MD (daily maintenance dose): 4.09 mg/day
CYP2C9 [4]; subjects requiring a high dose (>55 mg/week)
  share of subjects homozygous for CYP2C9*1: 83%
CYP2C9 [4]; subjects requiring a low dose (5-15 mg/week)
  share of subjects heterozygous for CYP2C9*2: 90%
